According to patent US20080096951A1 (SB Pharmo Puerto Rico Inc., priority 2002, published 2008):
≈ marks a conversion by molar mass, not a printed value. Like-named read-outs stand apart in the source and are kept apart here.

What was measured:
physchem = conditions: 25 °C, water, thermodynamic from solid
Experimental: Glass vials containing water and excess amount of carvedilol salts were shaken by a mechanical shaker at ambient conditions. Aliquots were taken out at various time-point, filtered through 0.45 μm Acrodisc GHP filter. The pH of the filtered solutions was measured and suitable dilution was performed prior to UV-Vis analysis of carvedilol concentration.

[1] = cited from earlier work

- solubility at 1 h (physchem): 9.8 µg/mL (≈ 24.1 µM)
- solubility at 24 h (physchem): 11.6 µg/mL (≈ 28.5 µM)
Compound: COc1ccccc1OCCNCC(O)COc1cccc2[nH]c3ccccc3c12 (racemic) [Carvedilol Free Base]
- solubility ([1]; above pH 9.0): < 1 µg/mL
- saturation solubility ([1]; pH 5, room temperature): ~100 µg/mL
- saturation solubility ([1]; pH 7, room temperature): ~23 µg/mL
